Measurements: US20090318385A1, “Pyrazolopyride derivative and phosphodiesterase ( pde) inhibitors containing the same as active ingredient” (priority 2006, published 2009)

Legend:
PDE4B catalytic domain = biological target: T1, PDE4B catalytic domain (Homo sapiens, UniProt Q07343); assay: Phosphodiesterase inhibitory activity (recombinant PDE4Bcat, [3H]cAMP); type: biochemical; conditions: 30° C. for 20 minutes, read-out: IC50 (μmol/L) PDE4
T1 construct: The cDNA of PDE4B catalytic domain (hereinafter abbreviated as Cat) was isolated from human RNA by RT-PCR; made in house; host or cells: Sf9 insect cells (baculovirus, Bac-to-Bac)
T1 sequence (Q07343 330-659 limits assumed): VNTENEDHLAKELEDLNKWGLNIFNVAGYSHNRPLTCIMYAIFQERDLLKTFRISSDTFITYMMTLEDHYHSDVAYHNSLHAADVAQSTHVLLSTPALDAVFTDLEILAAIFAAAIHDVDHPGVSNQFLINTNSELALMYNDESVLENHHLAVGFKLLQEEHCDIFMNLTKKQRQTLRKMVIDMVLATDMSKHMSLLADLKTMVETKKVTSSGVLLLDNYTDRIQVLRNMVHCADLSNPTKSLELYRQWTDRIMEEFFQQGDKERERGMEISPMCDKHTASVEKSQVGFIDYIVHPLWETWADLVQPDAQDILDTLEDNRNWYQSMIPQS
Description: The cDNA of PDE4B catalytic domain (hereinafter abbreviated as Cat) was isolated from human RNA by RT-PCR. The isolated cDNA fragments were inserted into Sf9 insect cells using Gateway system (product of Invitrogen Corporation) and Bac-to-Bac (registered trademark) Baculovirus Expression system (product of Invitrogen Corporation) to express a target PDE protein. The recombinant PDE4Bcat was purified from the culture supernatants or cell extracts of Sf9 cells expressing high levels of the PDE protein by ion exchange chromatography and was used for the following experiments.
A 4 mmol/L solution of each test compound was serially diluted four-fold with a 15% DMSO solution to prepare solutions with concentrations of 15 nmol/L to 4 mmol/L (the final concentrations used in the experiments were 1.5 nmol/L to 400 μmol/L). 10 μL of the prepared test compound solutions, [^3H] cAMP diluted with a buffer solution (40 mmol/L Tris-HCl (pH: 7.4), 10 mmol/L MgCl2), and 40 μL of the recombinant human PDE protein (2×10^−6 units, 1 unit is defined as the amount of PDE that breaks down 1 μmol/L of cAMP in one minute under the conditions of a pH of 7.5 and 30° C.) were added to a 96-well plate. The mixtures were reacted at 30° C. for 20 minutes. Then, the resultant mixtures were reacted at 65° C. for 2 minutes. Subsequently, […] of 1 mg/mL 5′-nucleotidase (Crotalusatrox venom, product of Sigma) was added to the mixtures, and the mixtures were reacted at 30° C. for 10 minutes. After completion of the reaction, 200 μL of a solution of Dowex (300 mg/mL Dowex 1x8-400 (product of Sigma Aldrich), 33% ethanol) was added to the mixtures, and the mixtures were shaken at 4° C. for 20 minutes. Subsequently, 200 μL of MicroScint 20 (product of Packard) was added to the mixtures, and measurement was performed using a scintillation counter (Topcount, product of Packard). IC50 values were calculated using Graph Pad Prism v3.03 (product of GraphPad Software). When 1 μmol/L>the IC50 value≧0.1 μmol/L, the results were represented by “+.” When 0.1 μmol/L>the IC50 value, the results were represented by “++.”

[1] = system: histamine-induced bronchoconstriction; assay: Histamine-induced airway contraction reaction in guinea pigs; type: in vivo; conditions: test compound 1 mg/kg i.v., histamine 12.5 μg/kg i.v., airflow 30 seconds after administration
Procedure: Guinea pigs were anesthetized with pentobarbital (30 mg/kg, i.p.). A cannula for intravenous administration, a cannula for collecting blood and measuring blood pressure, and a tracheal cannula were inserted into the left external jugular vein, right internal carotid artery, and trachea, respectively. The guinea pigs were maintained on artificial respiration under the conditions of 60 times/min and 10 mL/kg/stroke. The airflow from the side branch of the tracheal cannula was measured by a bronchospasm transducer (Ugo-Basile) and recorded on a computer via Power Lab (ADInstruments Japan). The guinea pigs were immobilized with gallamine (10 mg/kg, i.v.), and histamine was administered at 10-minute intervals (12.5 μg/kg, i.v.). After the histamine-induced bronchoconstriction was constant, one of the test compounds (1 mg/kg, i.v.) dissolved in DMSO was administered. We examined the inhibitory action of test compounds on histamine-induced bronchoconstriction 30 seconds after compounds administration. Bronchoconstriction was recorded as the value of airflow, and the results were represented by the ratio of the maximum value of the histamine-induced airflow 30 seconds after the administration to the maximum value of the airflow before the administration. When the inhibition ratio≧90%, the results were represented by “+++.” When 90%>the inhibition ratio≧70%, the results were represented by “++.” When 70%>the inhibition ratio≧30%, the results were represented by “+.”

[2] = system: total number of leukocytes in bronchoalveolar lavage fluid after LPS inhalation; assay: LPS acute inflammation model in rats; type: in vivo; conditions: Rattus norvegicus, Leukocyte, po, 3 mg/kg orally one hour before LPS inhalation, total leukocytes in BALF 3 hours after LPS inhalation, read-out: Inhibition ratio
Procedure: 3 mg/kg of the compounds were orally administered to rats one hour before inhalation of lipopolysaccharide (LPS) from E. coli serotype 055:B5, rats were inhalted nebulizing LPS solution (50 mL) by nebulizer for 30 minutes. Then, 3 hours after the LPS inhalation, rats were euthanized with 20% urethane (5 ml/rat, i.p.) 5 ml of physiological saline for bronchoalveolar lavage was injected into the bronchoalveolar space through the airway, and the bronchoalveolar space was washed 3 times using a 5 mL syringe. This procedure was repeated twice, and the solution was collected as bronchoalveolar lavage fluid (BALF). The collected BALF was centrifuged at 1,200 rpm and 4° C. for 10 minutes (Hirtachi; himac CR 5 DL). The sediment was re-suspended in 10 mL of a 0.1% bovine serum albumin-physiological saline, and an equivalent amount of Turk's solution was added to the suspension to stain leukocytes. The total number of leukocytes was counted under a microscope to determine the inhibition ratio. When the inhibition ratio≧60%, the results were represented by “++.” When 60%>the inhibition ratio≧30%, the results were represented by “+.”

Row | Compound | IC50 (PDE4B catalytic domain) [µmol/L] | Inhibition ratio [1] | inhibition in vivo at 3 mg/kg [2] [%]
1 | COc1ccc(C=Cc2ccncc2)c2cc(C(F)(F)F)nn12 [Example 78, 7-Methoxy-4-[(2-pyridin-4-yl)vinyl]-2-trifluoromethylpyrazolo[1,5-a]pyridine] | < 0.1 | + (When 70%>the inhibition ratio≧30%, the results were represented by “+.”) | 30 to 60
2 | COc1ccc(CCc2ccncc2)c2cc(C(F)(F)F)nn12 [Example 79, 7-Methoxy-4-[(2-pyridin-4-yl)ethyl]-2-trifluoromethylpyrazolo[1,5-a]pyridine] | < 0.1 | + (When 70%>the inhibition ratio≧30%, the results were represented by “+.”) | ≥ 60
3 | COc1ccc(C(=O)Cc2c(Cl)cncc2Cl)c2cc(C(F)(F)F)nn12 [Example 88, 2-(3,5-Dichloropyridin-4-yl)-1-(7-methoxy-2-trifluoromethylpyrazolo[1,5-a]pyridin-4-yl)ethanone] | < 0.1 | ++ (When 90%>the inhibition ratio≧70%, the results were represented by “++.”) | ≥ 60
4 | COc1ccc(/C=C/c2c(Cl)cncc2Cl)c2cc(C(F)(F)F)nn12 [Example 89, (E)-4-[2-(3,5-dichloropyridin-4-yl)vinyl]-7-methoxy-2-trifluoromethylpyrazolo[1,5-a]pyridine] | < 0.1 | + (When 70%>the inhibition ratio≧30%, the results were represented by “+.”) | 30 to 60
